Assay results published in patent US5324502A, “Radiopharmaceuticals for imaging the heart” (priority 1992, dated 1994).
Read-outs that look alike come from different tables or passages of the source.

Legend:
[1] = rat
Method: The gallium-67 complexes are prepared by ligand exchange from gallium-67 chloride, employing the tris(acetylacetonato)gallium(III) complex as an intermediate. The Ga-67 acetylacetonate in ethanol is reacted with the chelating ligand or ligand precursor at elevated temperature to form rapidly the desired gallium radiopharmaceutical. […] The biodistribution of several radiopharmaceuticals was determined in rats following intravenous injection using techniques previously described (M. A. Green, Nuclear Medicine and Biology 14:59-61, 1987; E. John and M. A. Green, J. Medicinal Chemistry, 33:1764-1770, 1990).
Under ether anesthesia, 1 to 3 μCi (0.1-0.2 mL) of no-carrier-added Ga-67 compound was administered by bolus injection into the femoral vein of male Sprague-Dawley rats. The ether anesthetized rats were sacrificed by decapitation at given time intervals post-injection, organs of interest were removed, weighed, and the gallium-67 activity counted. The biodistribution was calculated as a percentage of the injected dose per gram of tissue and percentage of injected dose per organ for each sample.

[2] = Octanol/water partition coefficient of radiolabeled gallium complexes; format: physicochemical; details: octanol/tris buffer, pH 7
Method: Octanol/water partition coefficients were measured by vortex mixing 1 mL of 1-octanol and 1 mL of isotonic Tris buffer (pH 7.0) with a 1-5 μL sample of the radiolabeled gallium complex. Following centrifugation at >1200 g for 5 minutes, the octanol and aqueous phases were sampled and counted in an automatic well counter.

COc1ccc(C=NCCCNCCNCCCN=Cc2ccc(OC)cc2[O-])c([O-])c1.[67Ga+3] [(4-MeOSal)2 BAPEN, ^67 GaL^+ L = [bis(4-methoxysalicylaldimino)-N,N'-bis(3-aminopropyl)-ethylenediamine]]
% injected dose in heart, 1 min ([1]; in vivo, iv): 0.67 ± 0.08 % injected dose | % injected dose in heart, 2 h ([1]; in vivo, iv): 0.65 ± 0.05 % injected dose | % Injected Dose per Gram Tissue, Blood ([1]; in vivo, iv, 1 min): 0.32 ± 0.02 | % Injected Dose per Gram Tissue, Brain ([1]; in vivo, iv, 1 min): 0.02 ± 0.01 | % Injected Dose per Gram Tissue, Heart ([1]; in vivo, iv, 1 min): 0.96 ± 0.07 | % Injected Dose per Gram Tissue, Kidney (one) ([1]; in vivo, iv, 1 min): 11.08 ± 0.88 | % Injected Dose per Gram Tissue, Liver ([1]; in vivo, iv, 1 min): 3.05 ± 0.27 | % Injected Dose per Gram Tissue, Lungs ([1]; in vivo, iv, 1 min): 0.91 ± 0.09 | % Injected Dose per Gram Tissue, Spleen ([1]; in vivo, iv, 1 min): 0.31 ± 0.05 | Heart/Blood ([1]; in vivo, iv, 1 min): 2.99 ± 0.15 | % Injected Dose per Gram Tissue, Blood ([1]; in vivo, iv, 2 h): 0.03 ± 0.01 | % Injected Dose per Gram Tissue, Brain ([1]; in vivo, iv, 2 h): 0.01 ± 0.003 | % Injected Dose per Gram Tissue, Heart ([1]; in vivo, iv, 2 h): 0.92 ± 0.07 | % Injected Dose per Gram Tissue, Kidney (one) ([1]; in vivo, iv, 2 h): 2.19 ± 0.08 | % Injected Dose per Gram Tissue, Liver ([1]; in vivo, iv, 2 h): 0.63 ± 0.20 | % Injected Dose per Gram Tissue, Lungs ([1]; in vivo, iv, 2 h): 0.32 ± 0.02 | % Injected Dose per Gram Tissue, Spleen ([1]; in vivo, iv, 2 h): 0.17 ± 0.03 | Heart/Blood ([1]; in vivo, iv, 2 h): 30.58 ± 2.22 | % Injected Dose per Gram Tissue, Blood ([1]; in vivo, iv, […]): 0.06 ± 0.01 | % Injected Dose per Gram Tissue, Brain ([1]; in vivo, iv, […]): 0.01 ± 0.001 | % Injected Dose per Gram Tissue, Heart ([1]; in vivo, iv, […]): 1.01 ± 0.08 | % Injected Dose per Gram Tissue, Kidney (one) ([1]; in vivo, iv, […]): 4.47 ± 0.62 | % Injected Dose per Gram Tissue, Liver ([1]; in vivo, iv, […]): 1.71 ± 0.40 | % Injected Dose per Gram Tissue, Lungs ([1]; in vivo, iv, […]): 0.38 ± 0.05 | % Injected Dose per Gram Tissue, Spleen ([1]; in vivo, iv, […]): 0.22 ± 0.02 | Heart/Blood ([1]; in vivo, iv, […]): 17.62 ± 0.31 | log P [2]: 0.80

CCN(CC)c1ccc(C=NCCCNCCNCCCN=Cc2ccc(N(CC)CC)cc2[O-])c([O-])c1.[67Ga+3] [(4-deaSal)2 BAPEN]
% Injected Dose per Gram Tissue, Blood ([1]; i.v., 1 min): 0.80 ± 0.01 % Injected Dose per Gram Tissu | % Injected Dose per Gram Tissue, Brain ([1]; i.v., 1 min): 0.04 ± 0.01 % Injected Dose per Gram Tissu | % Injected Dose per Gram Tissue, Heart ([1]; i.v., 1 min): 0.98 ± 0.07 % Injected Dose per Gram Tissu | % Injected Dose per Gram Tissue, Kidney (one) ([1]; i.v., 1 min): 7.22 ± 0.48 % Injected Dose per Gram Tissu | % Injected Dose per Gram Tissue, Liver ([1]; i.v., 1 min): 4.15 ± 0.25 % Injected Dose per Gram Tissu | % Injected Dose per Gram Tissue, Lungs ([1]; i.v., 1 min): 1.16 ± 0.06 % Injected Dose per Gram Tissu | % Injected Dose per Gram Tissue, Spleen ([1]; i.v., 1 min): 1.22 ± 0.47 % Injected Dose per Gram Tissu | % injected dose in heart, 1 min ([1]; i.v., 1 min, preliminary studies): 0.69 ± 0.05 % injected dose | % Injected Dose Per Gram of Tissue, Blood ([1]; i.v., 5 min): 0.39 ± 0.05 % Injected Dose Per Gram of Tissue | % Injected Dose Per Gram of Tissue, Brain ([1]; i.v., 5 min): 0.02 ± 0.01 % Injected Dose Per Gram of Tissue | % Injected Dose Per Gram of Tissue, Heart ([1]; i.v., 5 min): 0.91 ± 0.06 % Injected Dose Per Gram of Tissue | % Injected Dose Per Gram of Tissue, Kidney (1) ([1]; i.v., 5 min): 7.11 ± 0.89 % Injected Dose Per Gram of Tissue | % Injected Dose Per Gram of Tissue, Liver ([1]; i.v., 5 min): 3.96 ± 0.28 % Injected Dose Per Gram of Tissue | % Injected Dose Per Gram of Tissue, Lungs ([1]; i.v., 5 min): 0.89 ± 0.19 % Injected Dose Per Gram of Tissue | % Injected Dose Per Gram of Tissue, Spleen ([1]; i.v., 5 min): 1.19 % Injected Dose Per Gram of Tissue | % Injected Dose per Gram Tissue, Blood ([1]; i.v., 15 min): 0.20 ± 0.03 % Injected Dose per Gram Tissu | % Injected Dose per Gram Tissue, Brain ([1]; i.v., 15 min): 0.02 ± 0.00 % Injected Dose per Gram Tissu | % Injected Dose per Gram Tissue, Heart ([1]; i.v., 15 min): 0.90 ± 0.06 % Injected Dose per Gram Tissu | % Injected Dose per Gram Tissue, Kidney (one) ([1]; i.v., 15 min): 6.82 ± 0.53 % Injected Dose per Gram Tissu | % Injected Dose per Gram Tissue, Liver ([1]; i.v., 15 min): 3.21 ± 0.25 % Injected Dose per Gram Tissu | % Injected Dose per Gram Tissue, Lungs ([1]; i.v., 15 min): 0.70 ± 0.07 % Injected Dose per Gram Tissu | % Injected Dose per Gram Tissue, Spleen ([1]; i.v., 15 min): 1.27 ± 0.17 % Injected Dose per Gram Tissu | % Injected Dose per Gram Tissue, Blood ([1]; i.v., 120 min): 0.10 ± 0.01 % Injected Dose per Gram Tissu | % Injected Dose per Gram Tissue, Brain ([1]; i.v., 120 min): 0.02 ± 0.01 % Injected Dose per Gram Tissu | % Injected Dose per Gram Tissue, Heart ([1]; i.v., 120 min): 0.92 ± 0.10 % Injected Dose per Gram Tissu | % Injected Dose per Gram Tissue, Kidney (one) ([1]; i.v., 120 min): 5.69 ± 0.75 % Injected Dose per Gram Tissu | % Injected Dose per Gram Tissue, Liver ([1]; i.v., 120 min): 1.07 ± 0.10 % Injected Dose per Gram Tissu | % Injected Dose per Gram Tissue, Lungs ([1]; i.v., 120 min): 0.53 ± 0.06 % Injected Dose per Gram Tissu | % Injected Dose per Gram Tissue, Spleen ([1]; i.v., 120 min): 0.99 ± 0.18 % Injected Dose per Gram Tissu | % injected dose in heart, 2 h ([1]; i.v., 2 h, preliminary studies): 0.65 ± 0.05 % injected dose | Heart/Blood ([1]; ratio, i.v., 1 min): 1.22 ± 0.08 | Heart/Liver ([1]; ratio, i.v., 1 min): 0.24 ± 0.03 | Heart/Lungs ([1]; ratio, i.v., 1 min): 0.85 ± 0.10 | Heart/Blood ([1]; ratio, i.v., 5 min): 2.36 ± 0.25 | Heart/Liver ([1]; ratio, i.v., 5 min): 0.23 ± 0.02 | Heart/Lung ([1]; ratio, i.v., 5 min): 1.05 ± 0.19 | Heart/Blood ([1]; ratio, i.v., 15 min): 4.54 ± 0.31 | Heart/Liver ([1]; ratio, i.v., 15 min): 0.28 ± 0.04 | Heart/Lungs ([1]; ratio, i.v., 15 min): 1.29 ± 0.05 | Heart/Blood ([1]; ratio, i.v., 120 min): 9.21 ± 1.12 | Heart/Liver ([1]; ratio, i.v., 120 min): 0.86 ± 0.18 | Heart/Lungs ([1]; ratio, i.v., 120 min): 1.74 ± 0.35 | log P [2]: 2.44
